What is called IC50 is the concentration that inhibits the measured activity by half.

Where only a bound is given, the exact number is not on record here.

The test system of the first assay is glycolysis in HT1080 cells. In words: Glycolysis assay: oligomycin plus compound, cellular ATP by Cell Titer Glo. Format: cell-based. To be noted: 10 μM oligomycin, one hour, class symbols. Put shortly: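 Confluent HT1080 cells treated 1 h with compound plus 10 μM oligomycin to block mitochondrial ATP, so remaining ATP reflects glycolysis. Cellular ATP read by Cell Titer-Glo luminescence; IC50 derived from dose-response curves.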
A general note: Cellular ATP, detected with luciferase, serves as a proxy for viable cell number.
With `O=C(Nc1cccc(-c2nc(Nc3ccc(-c4cn[nH]c4)cc3)c3sccc3n2)c1)c1cccnc1` [Example 178, N-(3-(4-((4-(1H-pyrazol-4-yl)phenyl)amino)thieno[3,2-d]pyrimidin-2-yl)phenyl)nicotinamide], the IC50 fell in the range of 10 to 100 nM.

The same assay, now with this note: Homo sapiens, HT-1080, 1 h, 10 μM oligomycin, one hour, class symbols.
As for `CCC(CC)NC(=O)COc1cccc(-c2nc3c(c(Nc4ccc(-c5cn[nH]c5)cc4)n2)CN(C(=O)C(C)C)CC3)c1` [Example 153, 2-(3-(4-((4-(1H-pyrazol-4-yl)phenyl)amino)-6-isobutyryl-5,6,7,8-tetrahydropyrido[4,3-d]pyrimidin-2-yl)phenoxy)-N-(pentan-3-yl)acetamide], the IC50 lay within 10 to 100 nM.

`CC(C)CNC(=O)COc1cccc(-c2nc3c(c(Nc4ccc(-c5cn[nH]c5)cc4)n2)CN(C(=O)C(C)C)CC3)c1` [Example 154, 2-(3-(4-((4-(1H-pyrazol-4-yl)phenyl)amino)-6-isobutyryl-5,6,7,8-tetrahydropyrido[4,3-d]pyrimidin-2-yl)phenoxy)-N-isobutylacetamide]: the IC50 was 10 to 100 nM.

Consider `CC(C)C(=O)N1CCc2nc(-c3cccc(OCC(=O)NCC(C)(C)C)c3)nc(Nc3ccc(-c4cn[nH]c4)cc3)c2C1` [Example 155, 2-(3-(4-((4-(1H-pyrazol-4-yl)phenyl)amino)-6-isobutyryl-5,6,7,8-tetrahydropyrido[4,3-d]pyrimidin-2-yl)phenoxy)-N-neopentylacetamide], for which the IC50 was 10 to 100 nM.

As for `CCC(C)(C)NC(=O)COc1cccc(-c2nc3c(c(Nc4ccc(-c5cn[nH]c5)cc4)n2)CN(C(=O)C(C)C)CC3)c1` [Example 156, 2-(3-(4-((4-(1H-pyrazol-4-yl)phenyl)amino)-6-isobutyryl-5,6,7,8-tetrahydropyrido[4,3-d]pyrimidin-2-yl)phenoxy)-N-(tert-pentyl)acetamide], the IC50 lay within 10 to 100 nM.

As for `O=C(COc1cccc(-c2nc3c(c(Nc4ccc(-c5cn[nH]c5)cc4)n2)CNCC3)c1)NC1CCC1` [Example 157, 2-(3-(4-((4-(1H-pyrazol-4-yl)phenyl)amino)-5,6,7,8-tetrahydropyrido[4,3-d]pyrimidin-2-yl)phenoxy)-N-cyclobutylacetamide], the IC50 was 101 to 250 nM.

Take `CC(C)N1CCc2nc(-c3cccc(OCC(=O)NC4CCC4)c3)nc(Nc3ccc(-c4cn[nH]c4)cc3)c2C1` [Example 159, 2-(3-(4-((4-(1H-pyrazol-4-yl)phenyl)amino)-6-isopropyl-5,6,7,8-tetrahydropyrido[4,3-d]pyrimidin-2-yl)phenoxy)-N-cyclobutylacetamide]: the half-inhibitory concentration (IC50) fell in the range of 251 to 500 nM.

For the compound `CCN1CCc2nc(-c3cccc(OCC(=O)NC4CCC4)c3)nc(Nc3ccc(-c4cn[nH]c4)cc3)c2C1` [Example 160, 2-(3-(4-((4-(1H-pyrazol-4-yl)phenyl)amino)-6-ethyl-5,6,7,8-tetrahydropyrido[4,3-d]pyrimidin-2-yl)phenoxy)-N-cyclobutylacetamide], the IC50 fell in the range of 251 to 500 nM.

Take `CC(C)CNC(=O)COc1cccc(-c2nc3c(c(Nc4ccc(-c5cn[nH]c5)cc4)n2)CNCC3)c1` [Example 161, 2-(3-(4-((4-(1H-pyrazol-4-yl)phenyl)amino)-5,6,7,8-tetrahydropyrido[4,3-d]pyrimidin-2-yl)phenoxy)-N-isobutylacetamide]: the 50% inhibitory concentration (IC50) is 251 to 500 nM.

On to `CCN1CCc2nc(-c3cccc(OCC(=O)NCC(C)C)c3)nc(Nc3ccc(-c4cn[nH]c4)cc3)c2C1` [Example 164, 2-(3-(4-((4-(1H-pyrazol-4-yl)phenyl)amino)-6-ethyl-5,6,7,8-tetrahydropyrido[4,3-d]pyrimidin-2-yl)phenoxy)-N-isobutylacetamide], for which the IC50 was in the range of 251 to 500 nM.

As for `CCC(C)(C)NC(=O)COc1cccc(-c2nc(Nc3ccc(-c4cn[nH]c4)cc3)c3ccncc3n2)c1` [Example 165, 2-(3-(4-((4-(1H-pyrazol-4-yl)phenyl)amino)pyrido[3,4-d]pyrimidin-2-yl)phenoxy)-N-(tert-pentyl)acetamide], the IC50 lay within 10 to 100 nM.

`CCC(C)(C)NC(=O)COc1cccc(-c2nc3c(c(Nc4ccc(-c5cn[nH]c5)cc4)n2)COCC3)c1` [Example 166, 2-(3-(4-((4-(1H-pyrazol-4-yl)phenyl)amino)-7,8-dihydro-5H-pyrano[4,3-d]pyrimidin-2-yl)phenoxy)-N-(tert-pentyl)acetamide]: the IC50 was in the range of 10 to 100 nM.

As to `CC(C)(C)CNC(=O)COc1cccc(-c2nc3c(c(Nc4ccc(-c5cn[nH]c5)cc4)n2)CNCC3)c1` [Example 167, 2-(3-(4-((4-(1H-pyrazol-4-yl)phenyl)amino)-5,6,7,8-tetrahydropyrido[4,3-d]pyrimidin-2-yl)phenoxy)-N-neopentylacetamide], the IC50 fell in the range of 10 to 100 nM.

Turning to `CN1CCc2nc(-c3cccc(OCC(=O)NCC(C)(C)C)c3)nc(Nc3ccc(-c4cn[nH]c4)cc3)c2C1` [Example 168, 2-(3-(4-((4-(1H-pyrazol-4-yl)phenyl)amino)-6-methyl-5,6,7,8-tetrahydropyrido[4,3-d]pyrimidin-2-yl)phenoxy)-N-neopentylacetamide], the IC50 was 101 to 250 nM.

Take `CCN1CCc2nc(-c3cccc(OCC(=O)NCC(C)(C)C)c3)nc(Nc3ccc(-c4cn[nH]c4)cc3)c2C1` [Example 170, 2-(3-(4-((4-(1H-pyrazol-4-yl)phenyl)amino)-6-ethyl-5,6,7,8-tetrahydropyrido[4,3-d]pyrimidin-2-yl)phenoxy)-N-neopentylacetamide]: the IC50 is 101 to 250 nM.

On to `CC(C(=O)Nc1cccc(-c2nc3c(c(Nc4ccc(-c5cn[nH]c5)cc4)n2)COC3)c1)N1CCOCC1` (stereo not drawn) [Example 171, N-(3-(4-((4-(1H-pyrazol-4-yl)phenyl)amino)-5,7-dihydrofuro[3,4-d]pyrimidin-2-yl)phenyl)-2-morpholinopropanamide], for which the IC50 was in the range of 501 to 1000 nM.

Consider `CC(C(=O)Nc1cccc(-c2nc(Nc3ccc(-c4cn[nH]c4)cc3)c3occc3n2)c1)N1CCOCC1` (stereo not drawn) [Example 172, N-(3-(4-((4-(1H-pyrazol-4-yl)phenyl)amino)furo[3,2-d]pyrimidin-2-yl)phenyl)-2-morpholinopropanamide], for which the IC50 was 101 to 250 nM.

Consider `CC(C(=O)Nc1cccc(-c2nc(Nc3ccc(-c4cn[nH]c4)cc3)c3sccc3n2)c1)N1CCOCC1` (stereo not drawn) [Example 173, N-(3-(4-((4-(1H-pyrazol-4-yl)phenyl)amino)thieno[3,2-d]pyrimidin-2-yl)phenyl)-2-morpholinopropanamide], for which the IC50 is 251 to 500 nM.

As to `O=C(Nc1cccc(-c2nc(Nc3ccc(-c4cn[nH]c4)cc3)c3sccc3n2)c1)c1ccncc1` [Example 174, N-(3-(4-((4-(1H-pyrazol-4-yl)phenyl)amino)thieno[3,2-d]pyrimidin-2-yl)phenyl)isonicotinamide], the IC50 was in the range of 501 to 1000 nM.

Take `O=C(Nc1cccc(-c2nc3c(c(Nc4ccc(-c5cn[nH]c5)cc4)n2)COC3)c1)c1ccncc1` [Example 175, N-(3-(4-((4-(1H-pyrazol-4-yl)phenyl)amino)-5,7-dihydrofuro[3,4-d]pyrimidin-2-yl)phenyl)isonicotinamide]: the IC50 was in the range of 501 to 1000 nM.

For `O=C(Nc1cccc(-c2nc(Nc3ccc(-c4cn[nH]c4)cc3)c3sccc3n2)c1)c1ccccn1` [Example 176, N-(3-(4-((4-(1H-pyrazol-4-yl)phenyl)amino)thieno[3,2-d]pyrimidin-2-yl)phenyl)picolinamide], the IC50 was greater than 1000 nM.

With `O=C(Nc1cccc(-c2nc3c(c(Nc4ccc(-c5cn[nH]c5)cc4)n2)COC3)c1)c1ccccn1` [Example 177, N-(3-(4-((4-(1H-pyrazol-4-yl)phenyl)amino)-5,7-dihydrofuro[3,4-d]pyrimidin-2-yl)phenyl)picolinamide], the IC50 was 10 to 100 nM.

On to `O=C(COc1cccc(-c2nc(Nc3ccc(-c4cn[nH]c4)cc3)c3sccc3n2)c1)NC1CC(F)(F)C1` [Example 179, 2-(3-(4-((4-(1H-pyrazol-4-yl)phenyl)amino)thieno[3,2-d]pyrimidin-2-yl)phenoxy)-N-(3,3-difluorocyclobutyl)acetamide], for which the IC50 lay in the range of 251 to 500 nM.

Take `O=C(COc1cccc(-c2nc(Nc3ccc(-c4cn[nH]c4)cc3)c3sccc3n2)c1)NC1CCCCC1` [Example 180, 2-(3-(4-((4-(1H-pyrazol-4-yl)phenyl)amino)thieno[3,2-d]pyrimidin-2-yl)phenoxy)-N-cyclohexylacetamide]: the IC50 was in the range of 101 to 250 nM.

For `CCC(CC)NC(=O)COc1cccc(-c2nc(Nc3ccc(-c4cn[nH]c4)cc3)c3sccc3n2)c1` [Example 181, 2-(3-(4-((4-(1H-pyrazol-4-yl)phenyl)amino)thieno[3,2-d]pyrimidin-2-yl)phenoxy)-N-(pentan-3-yl)acetamide], the IC50 is 251 to 500 nM.

For the compound `CC(C)NC(=O)COc1cncc(-c2nc(Nc3ccc(-c4cn[nH]c4)cc3)c3ccsc3n2)c1` [Example 182, 2-((5-(4-((4-(1H-pyrazol-4-yl)phenyl)amino)thieno[2,3-d]pyrimidin-2-yl)pyridin-3-yl)oxy)-N-isopropylacetamide], the IC50 is greater than 1000 nM.

With `CN1CCN(CC(=O)Nc2cccc(-c3nc(Nc4ccc(-c5cn[nH]c5)cc4)c4sccc4n3)c2)CC1` [Example 183, N-(3-(4-((4-(1H-pyrazol-4-yl)phenyl)amino)thieno[3,2-d]pyrimidin-2-yl)phenyl)-2-(4-methylpiperazin-1-yl)acetamide], the IC50 lay within 501 to 1000 nM.

For `CN1CCN(CC(=O)Nc2cccc(-c3nc(Nc4ccc(-c5cn[nH]c5)cc4)c4occc4n3)c2)CC1` [Example 184, N-(3-(4-((4-(1H-pyrazol-4-yl)phenyl)amino)furo[3,2-d]pyrimidin-2-yl)phenyl)-2-(4-methylpiperazin-1-yl)acetamide], the IC50 was in the range of 501 to 1000 nM.

For the compound `CC(C)NC(=O)C(C)Oc1cccc(-c2nc3c(c(Nc4ccc(-c5cn[nH]c5)cc4)n2)COC3)c1` (stereo not drawn) [Example 185, 2-(3-(4-((4-(1H-pyrazol-4-yl)phenyl)amino)-5,7-dihydrofuro[3,4-d]pyrimidin-2-yl)phenoxy)-N-isopropylpropanamide], the IC50 is greater than 1000 nM.

Still in this assay, the particulars now being: Homo sapiens, HT-1080, 1 h, 10 μM oligomycin, one hour, number printed instead of class.
For the compound `CC(C)N1CCc2nc(-c3cccc(OCC(=O)NCC(C)(C)C)c3)nc(Nc3ccc(-c4cn[nH]c4)cc3)c2C1` [Example 169, 2-(3-(4-((4-(1H-pyrazol-4-yl)phenyl)amino)-6-isopropyl-5,6,7,8-tetrahydropyrido[4,3-d]pyrimidin-2-yl)phenoxy)-N-neopentylacetamide], the IC50 amounted to 290 nM.

The record behind these values is US10273248B2, “Glucose uptake inhibitors” (Kadmon Corporation LLC, priority 2015, dated 2019).
